Measurements taken from PMC9182199, “Borylated 2,3,4,5-Tetrachlorophthalimide and Their 2,3,4,5-Tetrachlorobenzamide Analogues: Synthesis, Their Glycosidase Inhibition and Anticancer Properties in View to Boron Neutron Capture Therapy” (Molecules, 2022).

Tests used:
[1] = test system: Bacillus α-glucosidase; experiment: Glycosidase inhibition, laboratory 2: Bacillus α-glucosidase; type: biochemical; conditions: water
Method: (§1) All enzymes and para-nitrophenyl substrates were purchased from Sigma. Enzymes were assayed at 27 °C in 0.1 M citric acid/0.2 M disodium hydrogen phosphate buffers at the optimum pH for the enzyme. The incubation mixture consisted of 10 μL enzyme solution, 10 μL of 1 mg/mL aqueous solution of extract and 50 μL of the appropriate 5 mM para-nitrophenyl substrate made up in buffer at the optimum pH for the enzyme. The reactions were stopped by addition of 70 μL 0.4 M glycine (pH 10.4) during the exponential phase of the reaction, which had been determined at the beginning using uninhibited assays in which water replaced inhibitor. Final absorbances were read at 405 nm using a Versamax microplate reader (Molecular Devices). Assays were carried out in triplicate, and the values given are means of the three replicates per assay. All reactions run in water.

[2] = molecular target: T1, yeast α-glucosidase (Saccharomyces cerevisiae, UniProt P53341); experiment: Glycosidase inhibition, laboratory 2: yeast α-glucosidase; type: biochemical; conditions: for inhibition at 400 µM: read-out: % inhibition at ~400 μM, water; for % inhibition at ~400 μM: water
T1 construct: purchased Sigma
Method: as §1

[3] = test system: bovine liver β-galactosidase; experiment: Glycosidase inhibition, laboratory 1: bovine liver β-galactosidase; type: biochemical; conditions: methanol
Source text: (§2) The enzymes α-glucosidase (from yeast), β-glucosidases (from almond and bovine liver), α-galactosidase (from coffee beans), β-galactosidase (from bovine liver), α-mannosidase (from Jack bean), β-mannosidase (from snail), α-L-rhamnosidase (from Penicillium decumbens), α-L-fucosidase (from bovine kidney), trehalase (from porcine kidney), β-glucuronidases (from E. coli and bovine liver), amyloglucosidase (from A. niger), para-nitrophenyl glycosides, and various disaccharides were purchased from Sigma-Aldrich Co (St Louis, MO, USA).
(§3) Brush border membranes were prepared from the rat small intestine according to the method of Kessler et al. and were assayed at pH 6.8 for rat intestinal maltase using maltose. For rat intestinal maltase, porcine kidney trehalase, and A. niger amyloglucosidase activities, the reaction mixture contained 25 mM maltose and the appropriate amount of enzyme, and the incubations were performed for 10–30 min at 37 °C. The reaction was stopped by heating at 100 °C for 3 min. After centrifugation (600× g; 10 min), the resulting reaction mixture was added to the Glucose CII-test Wako (Wako Pure Chemical Ind., Osaka, Japan). The absorbance at 505 nm was measured to determine the amount of the released D-glucose. Other glycosidase activities were determined using an appropriate para-nitrophenyl glycoside as substrate at the optimum pH of each enzyme. The reaction mixture contained 2 mM of the substrate and the appropriate amount of enzyme. The reaction was stopped by addition of 400 mM Na2CO3. The released para-nitrophenol was measured spectrometrically at 400 nm. All reactions run in methanol.

[4] = test system: Penicillium decumbens α-L-rhamnosidase; experiment: Glycosidase inhibition, laboratory 1: α-L-rhamnosidase; type: biochemical; conditions: methanol
Source text: as §2, §3

[5] = test system: A431; experiment: MTT cell growth inhibition: A431; type: cell-based; conditions: A431 skin carcinoma; for inhibition at 25 µM / GI50: Homo sapiens; for inhibition at 25 µM: A-431, read-out: Percentage (%) Cell Growth Inhibition in response to 25 µM of Drug; for inhibition at 25 µM / Percentage (%) Cell Growth Inhibition in response to 25 µM of Drug: 72 h, MTT; for GI50: A-431, read-out: GI50 = Concentration (µM) that inhibits cell growth by 50%, dose response
Method: All test agents were prepared as stock solutions (20 mM) in dimethyl sulfoxide (DMSO) and stored at −20 °C. Cell lines used in the study included HT29 (colorectal carcinoma); U87, SJ-G2, (glioblastoma); MCF-7, (breast carcinoma); A2780 (ovarian carcinoma); H460 (lung carcinoma); A431 (skin carcinoma); Du145 (prostate carcinoma); BE2-C (neuroblastoma); MiaPaCa-2 (pancreatic carcinoma); and SMA560 (spontaneous murine astrocytoma), together with the one non-tumour-derived normal breast cell line (MCF10A). All cell lines were incubated in a humidified atmosphere 5% CO2 at 37 °C. The cancer cell lines were maintained in Dulbecco’s modified Eagle’s medium (DMEM; Sigma, Australia) supplemented with foetal bovine serum (10%), sodium pyruvate (10 mM), penicillin (100 IUmL^−1), streptomycin (100 µg mL^−1) and L-glutamine (2 mM).
Growth inhibition was determined by plating cells in duplicate in medium (100 µL) at a density of 2500–4000 cells per well in 96-well plates. On day 0 (24 h after plating), when the cells were in logarithmic growth, medium (100 µL) with or without the test agent was added to each well. After 72 h drug exposure, growth inhibitory effects were evaluated using the MTT (3-(4,5-dimethyltiazol-2-yl)-2,5-diphenyltetrazolium bromide) assay and absorbance read at 540 nm. The percentage growth inhibition was calculated at a fixed concentration of 25 µM, based on the difference between the optical density values on day 0 and those at the end of drug exposure. Each data point is the mean ± the standard error of the mean (SEM) calculated from three replicates which were performed on separate occasions and separate cell line passages.

[6] = test system: almond β-glucosidase; experiment: Glycosidase inhibition, laboratory 2: almond β-glucosidase; type: biochemical; conditions: water
Method: as §1

[7] = molecular target: T2, Jack bean α-mannosidase (Canavalia ensiformis, UniProt C0HJB3); experiment: Glycosidase inhibition, laboratory 2: Jack bean α-mannosidase; type: biochemical; conditions: for inhibition at 400 µM: read-out: % inhibition at ~400 μM, water; for % inhibition at ~400 μM: water
T2 construct: purchased Sigma-Aldrich Co
T2 sequence (C0HJB3 1-981): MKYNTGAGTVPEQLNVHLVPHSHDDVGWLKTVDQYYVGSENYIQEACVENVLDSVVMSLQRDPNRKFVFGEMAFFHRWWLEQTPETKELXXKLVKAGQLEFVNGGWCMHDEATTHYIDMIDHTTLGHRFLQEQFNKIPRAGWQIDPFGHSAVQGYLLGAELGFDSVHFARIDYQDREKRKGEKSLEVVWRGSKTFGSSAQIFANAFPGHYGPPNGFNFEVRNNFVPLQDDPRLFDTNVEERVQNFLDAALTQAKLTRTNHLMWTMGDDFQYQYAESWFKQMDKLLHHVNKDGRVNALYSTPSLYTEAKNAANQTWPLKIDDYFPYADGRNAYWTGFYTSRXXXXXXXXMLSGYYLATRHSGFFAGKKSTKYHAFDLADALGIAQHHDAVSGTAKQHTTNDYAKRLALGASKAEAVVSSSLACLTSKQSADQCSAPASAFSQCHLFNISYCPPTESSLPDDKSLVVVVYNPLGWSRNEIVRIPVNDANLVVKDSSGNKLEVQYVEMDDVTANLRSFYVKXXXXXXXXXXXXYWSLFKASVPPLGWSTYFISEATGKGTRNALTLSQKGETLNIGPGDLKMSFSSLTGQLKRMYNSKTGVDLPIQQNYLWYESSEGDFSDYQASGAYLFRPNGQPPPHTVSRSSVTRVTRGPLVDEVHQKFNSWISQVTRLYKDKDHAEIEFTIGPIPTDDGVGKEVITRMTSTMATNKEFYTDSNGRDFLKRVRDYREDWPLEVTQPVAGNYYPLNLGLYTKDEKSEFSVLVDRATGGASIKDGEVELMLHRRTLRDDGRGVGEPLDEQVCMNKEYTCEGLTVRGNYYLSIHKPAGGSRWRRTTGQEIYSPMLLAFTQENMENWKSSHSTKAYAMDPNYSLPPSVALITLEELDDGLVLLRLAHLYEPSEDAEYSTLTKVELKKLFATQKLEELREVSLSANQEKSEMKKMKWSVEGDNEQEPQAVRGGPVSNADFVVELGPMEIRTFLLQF
Method: as §1

[8] = test system: porcine kidney trehalase; experiment: Glycosidase inhibition, laboratory 1: trehalase; type: biochemical; conditions: methanol
Source text: as §2, §3

T1 sequence (P53341 whole entry): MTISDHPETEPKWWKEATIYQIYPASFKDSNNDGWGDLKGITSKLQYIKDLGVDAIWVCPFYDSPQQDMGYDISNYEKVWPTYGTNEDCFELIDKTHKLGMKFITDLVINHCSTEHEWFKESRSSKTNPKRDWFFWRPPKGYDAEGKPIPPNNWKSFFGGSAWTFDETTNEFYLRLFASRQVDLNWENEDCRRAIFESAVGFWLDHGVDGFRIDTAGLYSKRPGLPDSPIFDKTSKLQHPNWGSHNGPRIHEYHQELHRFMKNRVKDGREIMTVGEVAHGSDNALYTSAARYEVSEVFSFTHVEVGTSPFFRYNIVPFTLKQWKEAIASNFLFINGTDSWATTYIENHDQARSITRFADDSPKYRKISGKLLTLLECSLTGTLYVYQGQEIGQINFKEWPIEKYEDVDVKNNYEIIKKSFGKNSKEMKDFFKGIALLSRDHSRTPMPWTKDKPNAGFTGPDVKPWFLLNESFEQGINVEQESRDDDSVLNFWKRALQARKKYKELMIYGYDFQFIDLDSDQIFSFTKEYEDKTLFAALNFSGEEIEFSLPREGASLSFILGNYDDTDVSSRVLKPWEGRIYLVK

Molecule: N[C@@H](Cc1ccc(B(O)O)cc1)C(=O)O [BPA, 4-borono-L-phenylalanine, reference compound]
- % inhibition at ~400 μM ([1]; 400 µM): 19.9%
- inhibition at 400 µM [2]: 2.9%
- inhibition % at 100 μM [3]: ^cNI ^d (10.9%)
- inhibition % at 100 μM [4]: ^cNI ^d (0%)
- inhibition at 25 µM [5]: 4 ± 6%
- % inhibition at ~400 μM ([6]; 400 µM): 3.9%
- inhibition at 400 µM [7]: 0.6%
- inhibition % at 100 μM [8]: ^cNI ^d (0%)

Molecule: N[C@@H](Cc1ccc(B(O)O)cc1)C(=O)O [^10B-BPA, reference compound]
- % inhibition at ~400 μM ([1]; 400 µM): 19.5%
- % inhibition at ~400 μM [2]: 3.4%
- inhibition % at 100 μM [3]: ^cNI ^d (0%)
- inhibition % at 100 μM [4]: ^cNI ^d (0%)
- Percentage (%) Cell Growth Inhibition in response to 25 µM of Drug [5]: 4 ± 4%
- % inhibition at ~400 μM ([6]; 400 µM): 3%
- % inhibition at ~400 μM [7]: −0.7%
- inhibition % at 100 μM [8]: ^cNI ^d (0%)

Molecule: CC1(C)OB(c2cccc(CN3C(=O)c4c(Cl)c(Cl)c(Cl)c(Cl)c4C3=O)c2)OC1(C)C [meta 3, 4,5,6,7-Tetrachloro-2-(3-(4,4,5,5-tetramethyl-1,3,2-dioxaborolan-2-yl)benzyl)isoindoline-1,3-dione]
- % inhibition at ~400 μM [1]: 31.7%
- inhibition at 400 µM [2]: 32.2%
- inhibition % at 10 μM [3]: ^cNI ^d (12.4%)
- inhibition % at 10 μM [4]: ^cNI ^d (0%)
- GI50 [5]: 28 ± 0.85 µM
- inhibition at 25 µM [5]: 48 ± 3%
- % inhibition at ~400 μM [6]: 19.3%
- inhibition at 400 µM [7]: 30.3%
- inhibition % at 100 μM [8]: ^aNI ^b (0%)

Molecule: CC1(C)OB(c2cccc(NC(=O)c3cc(Cl)c(Cl)c(Cl)c3Cl)c2)OC1(C)C [meta 5, 2,3,4,5-tetrachloro-N-(3-(4,4,5,5-tetramethyl-1,3,2-dioxaborolan-2-yl)phenyl)benzamide]
- % inhibition at ~400 μM [1]: 54.1%
- inhibition at 400 µM [2]: 82.8%
- IC50 [3]: 213 µM
- inhibition % at 100 μM [4]: ^aNI ^b (2.2%)
- inhibition at 25 µM [5]: 9 ± 9%
- % inhibition at ~400 μM [6]: 18.7%
- inhibition at 400 µM [7]: 2.2%
- inhibition % at 100 μM [8]: ^aNI ^b (0%)

Molecule: CC1(C)OB(c2ccccc2NC(=O)c2cc(Cl)c(Cl)c(Cl)c2Cl)OC1(C)C [ortho 5, 2,3,4,5-Tetrachloro-N-(2-(4,4,5,5-tetramethyl-1,3,2-dioxaborolan-2-yl)phenyl)benzamide]
- % inhibition at ~400 μM [1]: 14.4%
- inhibition at 400 µM [2]: 17.3%
- inhibition % at 10 μM [3]: ^cNI ^d (0%)
- inhibition % at 10 μM [4]: ^cNI ^d (0%)
- GI50 [5]: 11 ± 1.8 µM
- inhibition at 25 µM [5]: 100 ± 2%
- % inhibition at ~400 μM [6]: 21%
- inhibition at 400 µM [7]: 0%
- inhibition % at 10 μM ([8]; 10 μM): ^cNI ^d (1.2%)

Molecule: CC1(C)OB(c2ccccc2CNC(=O)c2cc(Cl)c(Cl)c(Cl)c2Cl)OC1(C)C [ortho 8, 2,3,4,5-tetrachloro-N-(2-(4,4,5,5-tetramethyl-1,3,2-dioxaborolan-2-yl)benzyl)benzamide]
- % inhibition at ~400 μM [1]: 23.7%
- inhibition at 400 µM [2]: 68.9%
- IC50 [3]: 278 µM
- inhibition % at 100 μM [4]: ^aNI ^b (6.2%)
- inhibition at 25 µM [5]: < 0%
- % inhibition at ~400 μM [6]: 83.4%
- inhibition at 400 µM [7]: -6.1%
- inhibition % at 100 μM [8]: ^aNI ^b (16.8%)

Molecule: CC1(C)OB(c2ccc(CN3C(=O)c4c(Cl)c(Cl)c(Cl)c(Cl)c4C3=O)cc2)OC1(C)C [para 3, 4,5,6,7-Tetrachloro-2-(4-(4,4,5,5-tetramethyl-1,3,2-dioxaborolan-2-yl)benzyl)isoindoline-1,3-dione]
- % inhibition at ~400 μM [1]: 17.9%
- inhibition at 400 µM [2]: 29.3%
- inhibition % at 100 μM [4]: ^aNI ^b (0%)
- GI50 [5]: 18 ± 2.3 µM
- inhibition at 25 µM [5]: 85 ± 8%
- % inhibition at ~400 μM [6]: 15.4%
- inhibition at 400 µM [7]: 16.5%
- inhibition % at 100 μM [8]: ^aNI ^b (0%)

Molecule: CC1(C)OB(c2ccc(NC(=O)c3cc(Cl)c(Cl)c(Cl)c3Cl)cc2)OC1(C)C [para 5, 2,3,4,5-tetrachloro-N-(4-(4,4,5,5-tetramethyl-1,3,2-dioxaborolan-2-yl)phenyl)benzamide]
- % inhibition at ~400 μM [1]: 20%
- inhibition at 400 µM [2]: 38.4%
- IC50 [3]: 333 µM
- inhibition % at 100 μM [4]: ^aNI ^b (14.4%)
- inhibition at 25 µM [5]: 64 ± 4%
- % inhibition at ~400 μM [6]: 11.3%
- inhibition at 400 µM [7]: -8.2%
- inhibition % at 100 μM [8]: ^aNI ^b (0%)

Molecule: Borocaptate sodium [BSH, reference compound]
- % inhibition at ~400 μM [1]: 48.1%
- % inhibition at ~400 μM [2]: 59%
- inhibition % at 1000 μM ([3]; 1000 μM): ^aNI ^b (0%)
- inhibition % at 1000 μM ([4]; 1000 μM): ^aNI ^b (0.2%)
- Percentage (%) Cell Growth Inhibition in response to 25 µM of Drug [5]: <0%
- % inhibition at ~400 μM [6]: 47.3%
- % inhibition at ~400 μM [7]: −18.7%
- inhibition % at 1000 μM ([8]; 1000 μM): ^aNI ^b (4.2%)
